Data on 13 compounds can be found in PMC10660663.

The data set in a line: SuFEx S-O bond formation: di-sulfonimidoyl fluoride (mixture of diastereomers) + diphenol (1:1), DBU 2.1 equiv, [1+1] macrocyclisation, one pot. As to conditions: the molecule shown is the open-chain precursor, MeCN, 20.0 mM, 50.0 °C.

Turning to `Cc1ccc(S(=O)(F)=NC(=O)c2ccc(Oc3ccc(C(=O)N=S(=O)(Oc4ccc(SSc5ccc(O)cc5)cc4)c4ccc(C)cc4)cc3)cc2)cc1` (stereo not shown) [3i], the ring closure, isolated yield (27-membered ring, 3.0 h) stood at 91%. For `CCC(c1ccc(O)cc1)C(CC)c1ccc(OS(=O)(=NC(=O)c2ccc(Oc3ccc(C(=O)N=S(=O)(F)c4ccc(C)cc4)cc3)cc2)c2ccc(C)cc2)cc1` (stereo not shown) [3j], the ring closure, isolated yield (27-membered ring, 3.0 h) amounted to 88%. With `Cc1ccc(S(=O)(F)=NC(=O)c2ccc(Oc3ccc(C(=O)N=S(=O)(Oc4cccc(Oc5cccc(Oc6cccc(O)c6)c5)c4)c4ccc(C)cc4)cc3)cc2)cc1` (stereo not shown) [3k], the ring closure, isolated yield (28-membered ring, 3.0 h) worked out at 88%. Turning to `Cc1ccc(S(=O)(F)=NC(=O)c2ccc(Oc3ccc(C(=O)N=S(=O)(Oc4ccc(OCCOc5ccc(O)cc5)cc4)c4ccc(C)cc4)cc3)cc2)cc1` (stereo not shown) [3l], the ring closure, isolated yield (29-membered ring, 3.0 h) came to 67%. In the case of `Cc1ccc(S(=O)(F)=NC(=O)c2ccc(Oc3ccc(C(=O)N=S(=O)(Oc4ccc(OCCCCOc5ccc(O)cc5)cc4)c4ccc(C)cc4)cc3)cc2)cc1` (stereo not shown) [3m], the ring closure, isolated yield (31-membered ring, 3.0 h) was found to be 78%. For the compound `Cc1ccc(S(=O)(F)=NC(=O)c2cccc(C(=O)N=S(=O)(Oc3ccc(SSc4ccc(O)cc4)cc3)c3ccc(C)cc3)c2)cc1` (stereo not shown) [3n], the ring closure, isolated yield (21-membered ring, 3.0 h) amounted to 72%.

Take `Cc1ccc(S(=O)(F)=NC(=O)c2cccc(C(=O)N=S(=O)(Oc3ccc(C(C)(C)c4cccc(C(C)(C)c5ccc(O)cc5)c4)cc3)c3ccc(C)cc3)c2)cc1` (stereo not shown) [3o (isophthaloyl)]: the ring closure, isolated yield (24-membered ring, 3.0 h) turned out to be 70%. As to `Cc1ccc(S(=O)(F)=NC(=O)c2cccc(C(=O)N=S(=O)(Oc3cccc(Oc4cccc(Oc5cccc(O)c5)c4)c3)c3ccc(C)cc3)c2)cc1` (stereo not shown) [3p], the ring closure, isolated yield (22-membered ring, 3.0 h) came to 69%. `Cc1ccc(S(=O)(F)=NC(=O)c2cccc(C(=O)N=S(=O)(Oc3ccc(OCCOc4ccc(O)cc4)cc3)c3ccc(C)cc3)c2)cc1` (stereo not shown) [3q]: the ring closure, isolated yield (23-membered ring, 3.0 h) is 64%. For the compound `Cc1ccc(S(=O)(F)=NC(=O)c2cccc(C(=O)N=S(=O)(Oc3ccc(SSc4ccc(O)cc4)cc3)c3ccc(C)cc3)n2)cc1` (stereo not shown) [3r], the ring closure, isolated yield (21-membered ring, 3.0 h) stood at 91%. For `Cc1ccc(S(=O)(F)=NC(=O)c2ccc(-c3ccc(C(=O)N=S(=O)(Oc4ccccc4CNCCCCCCNCc4ccccc4O)c4ccc(C)cc4)cc3)cc2)cc1` (stereo not shown) [3s], for the setting “30-membered ring, 3.0 h”, the ring closure, isolated yield is 80%.

`Cc1ccc(S(=O)(F)=NC(=O)c2ccc(-c3ccc(C(=O)N=S(=O)(Oc4ccc(C(C)(C)c5cccc(C(C)(C)c6ccc(O)cc6)c5)cc4)c4ccc(C)cc4)cc3)cc2)cc1` (stereo not shown) [3t]: the ring closure, isolated yield (29-membered ring, 3.0 h) amounted to 90%. For the compound `Cc1ccc(S(=O)(F)=NC(=O)c2ccc(C(=O)N=S(=O)(Oc3ccc(Cc4ccc(O)cc4)cc3)c3ccc(C)cc3)cc2)cc1` (stereo not shown) [3u (10 mM, 6 h)], the ring closure, isolated yield (21-membered ring, 6.0 h) was 94%.
